Assay: CP 55,940 levels in eight brain regions 2 h after single i.p. 3 mg/kg injection (HPLC/MS/MS)
Assay type: in vivo, mouse
Conditions: for CP 55,940 level: 3mg/kg CP 55,940, mean
Method: The Bloomington Institutional Animal Care and Use Committee of Indiana University reviewed and approved the animal procedures. Female mice from the CD1 strain were utilized to match our study examining THC’s effects on the brain lipidome ([Leishman et al., 2018]). Mice were given a single i.p. injection of either 3 mg/kg CP or 1:1:18 cremophor:ethanol:saline vehicle (please refer to the section “3 mg/kg CP Is Relevant for Synthetic Cannabinoid Abuse and Has Stronger Effects on the Female Mouse Brain Lipidome During Adolescence” for a justification of dose and use of female mice). Three different age groups were given injections: PND 35 and PND 50 adolescents, and adult mice (PND 113). At least eight mice in each age group received CP and at least eight received vehicle. Matching the THC study time course ([Leishman et al., 2018]), mice were sacrificed via rapid decapitation 2 h after injection. Brains were immediately removed and flash-frozen in liquid nitrogen, and then stored at -80°C until dissections were performed. Brains were dissected on an ice-cold dissection plate into the following regions: STR, HIPP, CER, THAL, CTX, HYP, MID, and STEM. These abbreviations for these brain areas will be used exclusively when discussing the results generated by these specific dissections. Each dissected area was immediately placed in liquid nitrogen and then stored at -80°C until used for lipid extraction.
Tissue extracts were performed as previously described ([Bradshaw et al., 2006]; [Stuart et al., 2013]; [Raboune et al., 2014]; [Leishman et al., 2016a],[b], [2017], [2018]). First, samples were shock frozen in liquid nitrogen, weighed, and transferred to a centrifuge tube. The mass of the largest sample was multiplied by 50 to determine how many milliliters of HPLC-grade methanol (Fisher, Fair Lawn, NJ, United States) to add. Then, samples were spiked with 500 pmol deuterium-labeled NAGly (d8NAGly; Cayman Chemical, Ann Arbor, MI, United States). Samples were placed on ice in darkness for 2 h then individually homogenized and centrifuged at 19,000 × g for 20 min at 20°C. Supernatants were diluted with HPLC water (purified in house) to make a solution of 75% water, 25% supernatant. Lipids were partially purified on C18 solid phase extraction columns (Agilent, Palo Alto, CA, United States). A series of four elutions with 1.5 mL of 60%, 75%, 85%, and 100% methanol were collected ([Stuart et al., 2013]; [Leishman et al., 2016a],[b], [2018]).
As previously described ([Bradshaw et al., 2006]; [Tan et al., 2006]; [Smoum et al., 2010]; [Stuart et al., 2013]; [Tortoriello et al., 2013]; [Raboune et al., 2014]; [Leishman et al., 2016a],[b], [2017], [2018]), samples were analyzed using an Applied Biosystems API 3000 triple quadrupole mass spectrometer with electrospray ionization (Foster City, CA, United States). Using an Agilent XDB-C18 reversed phase analytical column and optimized mobile phase gradients, 20 μL from each elution were chromatographed. Two Shimadzu 10ADvp pumps (Columbia, MD, United States) provided the pressure for gradient elution. Mobile phase A: 20% methanol, 80% water (v/v) and 1 mM ammonium acetate (Sigma, St. Louis, MO, United States). Mobile phase B: 100% methanol, 1 mM ammonium acetate. Every method run began with 0% mobile phase B, reached 100% mobile phase B flowing at 0.2 mL/min, and gradually returned to 0% mobile phase B.
This screening library will be referred to as the lipidome when discussing data from this study. HPLC/MS/MS data were analyzed using Analyst software (Applied Biosystems) ([Bradshaw et al., 2006]; [Tan et al., 2006]; [Stuart et al., 2013]; [Tortoriello et al., 2013]; [Raboune et al., 2014]; [Leishman et al., 2016a],[b], [2017], [2018]). Chromatograms (Supplementary Figure 3) were generated by determining the retention time of analytes from the analytical column with a [M-1] or [M+1] parent peak and a fragmentation peak corresponding to the programmed values. […]

[1] = brainstem, PND 50, 3 mg/kg CP 55,940, one-way ANOVA p .000
[2] = cerebellum, PND 50, 3 mg/kg CP 55,940
[3] = cerebellum, adult, 3 mg/kg CP 55,940
[4] = cerebellum, PND 35, 3 mg/kg CP 55,940
[5] = cortex, PND 35, 3 mg/kg CP 55,940
[6] = hippocampus, PND 50, 3 mg/kg CP 55,940 vs Veh
[7] = hippocampus, adult, 3 mg/kg CP 55,940
[8] = hippocampus, PND 35, 3 mg/kg CP 55,940 vs vehicle
[9] = striatum, PND 50, 3mg/kg CP 55,940 vs Veh
[10] = striatum, adult, 3 mg/kg CP 55,940, one-way ANOVA p .000
[11] = striatum, PND 35, 3mg/kg CP 55,940
[12] = thalamus, PND 50, 3 mg/kg CP 55,940
[13] = thalamus, adult, 3 mg/kg CP 55,940
[14] = thalamus, PND 35, 3 mg/kg CP 55,940

CCCCCCC(C)(C)c1ccc([C@@H]2C[C@H](O)CC[C@H]2CCCO)c(O)c1 [CP 55,940]
CP 55,940 level, Mean (brainstem, PND 50, 3 mg/kg CP 55,940): 8.2E-11
CP 55,940 level, Direction (relative to Veh) [1]: ↑
CP 55,940 level, Magnitude (x Veh level) [1]: infinite
CP 55,940 level: Direction (relative to Veh) [2]: ↑
CP 55,940 level: Magnitude (x Veh level) [2]: infinite
CP 55,940 level, Mean (cerebellum, PND 50 female mice, 3 mg/kg CP 55,940): 7.57E-11
CP 55,940 level, Mean (cerebellum, WT adult female mice, 3mg/kg CP 55,940): 2.8E-10
CP 55,940 level: Direction (relative to Veh) [3]: ↑
CP 55,940 level: Magnitude (x Veh level) [3]: infinite
CP 55,940 level: Direction (relative to Veh) [4]: ↑
CP 55,940 level: Magnitude (x Veh level) [4]: infinite
CP 55,940 level, Mean (cerebellum, PND35 WT female mice, 3mg/kg CP 55,940): 7.22E-11
CP 55,940 level, Direction (relative to Veh) (cortex, PND 50, 3 mg/kg CP 55,940): ↑
CP 55,940 level, Magnitude (x Veh level) (cortex, PND 50, 3 mg/kg CP 55,940, ANOVA p .000): infinite
CP 55,940 level, Mean (cortex, PND 50 female mice, 3mg/kg CP 55,940): 8.61E-11
CP 55,940 level Direction (rel to Veh) [5]: ↑
CP 55,940 level, Magnitude (x Veh level) [5]: infinite
CP 55,940 level, Mean (cortex, PND 35 adolescent female mice, 3 mg/kg CP 55,940): 1.11E-10
CP 55,940 level, Direction (relative to Veh) [6]: ↑
CP 55,940 level, Magnitude (x Veh level) [6]: infinite
CP 55,940 level (hippocampus, PND 50 female mice): 1.23E-10
CP 55,940 level, Mean [7]: 2.68E-10
CP 55,940 level: Direction (relative to Veh) [7]: ↑
CP 55,940 level: Magnitude (x Veh level) [7]: infinite
CP 55,940 level: Direction [8]: ↑
CP 55,940 level: Magnitude [8]: infinite
CP 55,940 level, Mean (hippocampus, PND 35 WT female mice, 3mg/kg CP 55,940): 9.63E-11
CP 55,940 level, Direction (relative to Veh) (hypothalamus, PND 50, 3mg/kg CP 55,940): ↑
CP 55,940 level, Magnitude (x Veh level) (hypothalamus, PND 50, 3mg/kg CP 55,940, ANOVA p .000): infinite
CP 55,940 level, Mean (hypothalamus, PND 50 female mice, 3mg/kg CP 55,940): 4.38E-11
CP 55,940 level, Mean (hypothalamus, PND 35 adolescent female mice, 3 mg/kg): 5.31E-11
CP 55,940 level, Direction (relative to Veh) (midbrain, PND 50, 3mg/kg CP 55,940): ↑
CP 55,940 level, Magnitude (x Veh level) (midbrain, PND 50, 3mg/kg CP 55,940, ANOVA p .000): infinite
CP 55,940 level, Mean (midbrain, PND 50 female mice, 3mg/kg CP 55,940): 1.21E-10
CP 55,940 level, Mean (midbrain, PND 35 WT adolescent female mice, 3 mg/kg): 7.91E-11
CP 55,940 level, Direction (relative to Veh) [9]: ↑
CP 55,940 level, Magnitude (x Veh level) [9]: infinite
CP 55,940 level (striatum, PND 50 female mice): 5.87E-11
CP 55,940 level, Mean (striatum, adult, 3 mg/kg CP 55,940): 2.08E-10
CP 55,940 level, Direction (relative to Veh) [10]: ↑
CP 55,940 level, Magnitude (x Veh level) [10]: infinite
CP 55,940 level: Direction (relative to Veh) [11]: ↑
CP 55,940 level: Magnitude (x Veh level) [11]: infinite
CP 55,940 level: Direction (relative to Veh) [12]: ↑
CP 55,940 level: Magnitude (x Veh level) [12]: infinite
CP 55,940 level, Mean (thalamus, PND 50 female mice, 3 mg/kg CP 55,940): 9.93E-11
CP 55,940 level, Mean (thalamus, WT adult female mice, 3mg/kg CP 55,940): 2E-10
CP 55,940 level: Direction (relative to Veh) [13]: ↑
CP 55,940 level: Magnitude (x Veh level) [13]: infinite
CP 55,940 level, Direction (relative to Veh) [14]: ↑
CP 55,940 level, Magnitude (x Veh level) [14]: infinite
CP 55,940 level, Mean (thalamus, PND 35 adolescent female mice, 3 mg/kg CP 55,940): 8.87E-11

Reference: publication PMC6277767, “Broad and Region-Specific Impacts of the Synthetic Cannabinoid CP 55,940 in Adolescent and Adult Female Mouse Brains” (Frontiers in Molecular Neuroscience, 2018)
